According to PMC11079024, “Identification of a family of species-selective complex I inhibitors as potential anthelmintics” (Nature Communications, 2024):
Where “and” joins values, the source holds several entries; their conditions need not be identical. Equal entries are not always repeated. Where two headings read alike, the source gives them in different places.

Tests used:
[1] = tested on: P. hermaphrodita complex I; test: In vitro complex I activity assay, P. hermaphrodita mitochondria; format: biochemical, Phasmarhabditis hermaphrodita; settings: purified mitochondria
Experimental: (§1) Mitochondria were isolated from the following free-living nematode strains: C. elegans—N2, CB3474, ECA882, ECA917, ECA1075, ECA1080; C. briggsae—AF16; P. pacificus—PS312; and P. hermaphrodita—B178. With the exception of the P. hermaphrodita strain B178, adult worms of each strain were grown in bulk through liquid culture to obtain mitochondria in sufficient quantities. Due to poor growth in liquid media, mixed stage populations of P. hermaphrodita were washed off and collected from NGM plates seeded with OP50. The isolation of mitochondria from all free-living nematode strains followed the protocol previously outlined in Burns et al.[24]. In brief, a 1 L saturated culture of E. coli HB101 was concentrated 20-fold in 50 mL complete S-medium. ~500,000 L1 worms synchronized from an embryo preparation performed the day prior were added to the S-media/HB101 suspension and grown to adulthood over the course of 3.5 days at 20 °C with shaking at 165 rpm. Following growth, worms were collected in 10 ×15 mL conical tubes and washed 7 times in M9 buffer. Worm suspensions were then combined into a single 15 mL conical tube and diluted to a final volume of 15 mL with M9 buffer. 1 mL aliquots of worm suspension were then distributed to 15 × 1.5 mL screw-cap microcentrifuge tubes and were pelleted at 500 g for 1 min. Excess M9 was aspirated without disturbing the worm pellet. 600 μL ice-cold isolate buffer A (250 mM sucrose, 10 mM Tris (pH 7.5), 1 mM EDTA, 1 mM PMSF (freshly prepared)) and 300 μL cold glass beads were then added to each tube. Tubes were incubated on ice for 10 min, and the worms were then lysed by bead beating (6 x 30 s, with 1 min cooling intervals). Tubes containing worm lysate were centrifuged at 1,000 g for 10 min at 4 °C and the supernatant was transferred to 15 new microcentrifuge tubes on ice. The tubes were centrifuged a second time at 1,000 g for 10 min at 4 °C and the supernatant was once again transferred to 15 new microcentrifuge tubes on ice. These tubes were then centrifuged at 16,000 g for 10 min at 4 °C. The resulting mitochondrial pellet was washed twice by re-suspension in 300 μL of ice-cold isolate buffer B (250 mM sucrose, 10 mM Tris (pH 7.5), 1 mM EDTA). Following the final wash, isolation buffer was aspirated from each tube and the pellets were flash-frozen in ethanol/dry ice and stored at −80 °C until needed.
(§2) The enzymatic activities of individual ETC complexes (I-IV) were assessed spectrophotometrically in isolated mitochondria using a Varioskan LUX Multimode plate reader (ThermoFisher Scientific). Mitochondrial pellets previously isolated were thawed on ice and resuspended in ice-cold isolation buffer (250 mM sucrose, 10 mM Tris (pH 7.5), 1 mM EDTA). The BCA assay (Walker, 1994) was used to quantify the protein concentration of mitochondria suspensions; solutions were diluted to a concentration of 0.2 mg/mL for use in all assays. For the complex I assay, mitochondria pellets were freeze-thawed on ice three times to increase enzyme accessibility. […] 20 μL mitochondria suspension was then added/mixed with a pipette to initiate the reaction. Immediately following the addition of mitochondria, absorbance was measured (complex I and II: 600 nm; complex III and IV: 550 nm) in 30 s intervals over 15 min. Enzymatic activity was determined in each reaction by plotting absorbance versus time and calculating the slope of the curve during the initial linear phase of the reaction. […] Percent activity of each complex was calculated by dividing the enzyme-specific activity of each well by the enzyme-specific activity of the corresponding solvent controls.
(§3) Chemical solutions were prepared in complex I assay buffer composed of 25 mM KPi buffer (pH 7.5), 3 mg/mL bovine serum albumin (BSA), 80 μM NADH, 60 μM decylubiquinone, 160 μM DCIP, 2 μM antimycin A and 2 mM KCN. […]

P. pacificus complex I = P. pacificus complex I (Pristionchus pacificus, UniProt A0A454XZ18+A0A8R1Z3U8+A4UAP3); test: In vitro complex I activity assay, P. pacificus mitochondria; format: biochemical
Experimental: as §1, §2, §3

L1 wild-type C. elegans = test: 15-hour motility assay with drug alone (no KCN); format: cell-based, Caenorhabditis elegans
[2] = P. pacificus mitochondria, Mean, read-out: in vitro complex I activity relative to solvent control
[3] = P. pacificus mitochondria, single replicate, read-out: in vitro complex I activity relative to solvent control

## Cc1ccccc1OCCCCn1cnc2ccccc21 [Compound 7732524]
[1]
  IC50: 68.7 nM
P. pacificus complex I; [2]
  remaining activity at 0.0001 µM: 87.6%
  remaining activity at 15 µM: 16.2%
P. pacificus complex I; [3]
  remaining activity at 0.0001 µM: 93.9%
  remaining activity at 15 µM: 15.9%
P. pacificus complex I; P. pacificus mitochondria, 0.0005 µM, Mean, read-out: in vitro complex I activity relative to solvent control
  remaining activity at 0.0005 µM: 88.6%
P. pacificus complex I; P. pacificus mitochondria, 0.001 µM, Mean, read-out: in vitro complex I activity relative to solvent control
  remaining activity at 0.001 µM: 75.8%
P. pacificus complex I; P. pacificus mitochondria, 0.0025 µM, Mean, read-out: in vitro complex I activity relative to solvent control
  remaining activity at 0.0025 µM: 97.4%
P. pacificus complex I; P. pacificus mitochondria, 0.005 µM, Mean, read-out: in vitro complex I activity relative to solvent control
  remaining activity at 0.005 µM: 100%
P. pacificus complex I; P. pacificus mitochondria, 0.013 µM, Mean, read-out: in vitro complex I activity relative to solvent control
  remaining activity at 0.013 µM: 85.8%
P. pacificus complex I; P. pacificus mitochondria, 0.025 µM, Mean, read-out: in vitro complex I activity relative to solvent control
  remaining activity at 0.025 µM: 73.7%
P. pacificus complex I; P. pacificus mitochondria, 0.063 µM, Mean, read-out: in vitro complex I activity relative to solvent control
  remaining activity at 0.063 µM: 46.6%
P. pacificus complex I; P. pacificus mitochondria, 0.125 µM, Mean, read-out: in vitro complex I activity relative to solvent control
  remaining activity at 0.125 µM: 24.7%
P. pacificus complex I; P. pacificus mitochondria, 0.313 µM, Mean, read-out: in vitro complex I activity relative to solvent control
  remaining activity at 0.313 µM: 8.23%
P. pacificus complex I; P. pacificus mitochondria, 0.625 µM, Mean, read-out: in vitro complex I activity relative to solvent control
  remaining activity at 0.625 µM: 11.5%
P. pacificus complex I; P. pacificus mitochondria, 1.5 µM, Mean, read-out: in vitro complex I activity relative to solvent control
  remaining activity at 1.5 µM: 9.66%
P. pacificus complex I; P. pacificus mitochondria, 3 µM, Mean, read-out: in vitro complex I activity relative to solvent control
  remaining activity at 3 µM: 9.9%
P. pacificus complex I; P. pacificus mitochondria, 37.5 µM, Mean, read-out: in vitro complex I activity relative to solvent control
  remaining activity at 37.5 µM: 16.1%
P. pacificus complex I; P. pacificus mitochondria, 75 µM, Mean, read-out: in vitro complex I activity relative to solvent control
  remaining activity at 75 µM: 7.58%
P. pacificus complex I; purified mitochondria
  IC50: 56.2 nM

## O=C(NCCc1ccc(Cl)cc1)c1ccccc1C(F)(F)F [Wact-11]
L1 wild-type C. elegans
  Value relative to DMSO control, drug alone (without KCN): 0.932
L1 wild-type C. elegans; 15 hour drug alone (without KCN) treatment, dose 0.1 µM, Mean of replicates
  Value relative to DMSO control, drug alone (without KCN): 1.053
L1 wild-type C. elegans; 15 hour drug alone (without KCN) treatment, dose 0.1 µM, individual replicates
  Value relative to DMSO control, drug alone (without KCN): 0.994 and 1.015 and 1.070 and 1.131
L1 wild-type C. elegans; 15 hour drug alone (without KCN) treatment, dose 0.2 µM, Mean of replicates
  Value relative to DMSO control, drug alone (without KCN): 1.080
L1 wild-type C. elegans; 15 hour drug alone (without KCN) treatment, dose 0.2 µM, individual replicates
  Value relative to DMSO control, drug alone (without KCN): 0.940 and 1.013 and 1.214 and 1.154
L1 wild-type C. elegans; 15 hour drug alone (without KCN) treatment, dose 0.4 µM, Mean of replicates
  Value relative to DMSO control, drug alone (without KCN): 1.046
L1 wild-type C. elegans; 15 hour drug alone (without KCN) treatment, dose 0.4 µM, individual replicates
  Value relative to DMSO control, drug alone (without KCN): 0.988 and 1.230 and 1.034
L1 wild-type C. elegans; 15 hour drug alone (without KCN) treatment, dose 0.8 µM, Mean of replicates
  Value relative to DMSO control, drug alone (without KCN): 1.007
L1 wild-type C. elegans; 15 hour drug alone (without KCN) treatment, dose 0.8 µM, individual replicates
  Value relative to DMSO control, drug alone (without KCN): 0.912 and 0.907 and 0.949 and 1.257
L1 wild-type C. elegans; 15 hour drug alone (without KCN) treatment, dose 3.1 µM, Mean of replicates
  Value relative to DMSO control, drug alone (without KCN): 0.983
L1 wild-type C. elegans; 15 hour drug alone (without KCN) treatment, dose 3.1 µM, individual replicates
  Value relative to DMSO control, drug alone (without KCN): 0.954 and 0.915 and 1.162 and 0.901
L1 wild-type C. elegans; 15 hour drug alone (without KCN) treatment, dose 6.3 µM, Mean of replicates
  Value relative to DMSO control, drug alone (without KCN): 0.923
L1 wild-type C. elegans; 15 hour drug alone (without KCN) treatment, dose 6.3 µM, individual replicates
  Value relative to DMSO control, drug alone (without KCN): 0.914 and 0.918 and 0.975 and 0.884
L1 wild-type C. elegans; 15 hour drug alone (without KCN) treatment, dose 12.5 µM, Mean of replicates
  Value relative to DMSO control, drug alone (without KCN): 0.780
L1 wild-type C. elegans; 15 hour drug alone (without KCN) treatment, dose 12.5 µM, individual replicates
  Value relative to DMSO control, drug alone (without KCN): 0.693 and 0.662 and 1.090 and 0.677
L1 wild-type C. elegans; 15 hour drug alone (without KCN) treatment, dose 25 µM, Mean of replicates
  Value relative to DMSO control, drug alone (without KCN): 0.783
L1 wild-type C. elegans; 15 hour drug alone (without KCN) treatment, dose 25 µM, individual replicates
  Value relative to DMSO control, drug alone (without KCN): 0.523 and 0.436 and 0.991 and 1.184
L1 wild-type C. elegans; 15 hour drug alone (without KCN) treatment, dose 50 µM, Mean of replicates
  Value relative to DMSO control, drug alone (without KCN): 0.600
L1 wild-type C. elegans; 15 hour drug alone (without KCN) treatment, dose 50 µM, individual replicates
  Value relative to DMSO control, drug alone (without KCN): 0.549 and 0.392 and 0.803 and 0.657
L1 wild-type C. elegans; 15 hour drug alone (without KCN) treatment, dose 100 µM, Mean of replicates
  Value relative to DMSO control, drug alone (without KCN): 0.425
L1 wild-type C. elegans; 15 hour drug alone (without KCN) treatment, dose 100 µM, individual replicates
  Value relative to DMSO control, drug alone (without KCN): 0.232 and 0.150 and 0.884 and 0.433
